Test results from ChEMBL document CHEMBL3397027, “Design, synthesis and evaluation of chromone-2-carboxamido-alkylbenzylamines as multifunctional agents for the treatment of Alzheimer's disease” (Bioorg Med Chem, 2015).
Activity calls are given as the source filed them. The rule behind the calls is not given here.

How the values were obtained:
Acetylcholinesterase [1] = target: Acetylcholinesterase (Electrophorus electricus, UniProt O42275); experiment: Inhibition of electric eel AChE using acetylthiocholine iodide as substrate after 15 mins by Ellman method
Sequence of Acetylcholinesterase (Electrophorus electricus, UniProt O42275) (O42275 whole entry): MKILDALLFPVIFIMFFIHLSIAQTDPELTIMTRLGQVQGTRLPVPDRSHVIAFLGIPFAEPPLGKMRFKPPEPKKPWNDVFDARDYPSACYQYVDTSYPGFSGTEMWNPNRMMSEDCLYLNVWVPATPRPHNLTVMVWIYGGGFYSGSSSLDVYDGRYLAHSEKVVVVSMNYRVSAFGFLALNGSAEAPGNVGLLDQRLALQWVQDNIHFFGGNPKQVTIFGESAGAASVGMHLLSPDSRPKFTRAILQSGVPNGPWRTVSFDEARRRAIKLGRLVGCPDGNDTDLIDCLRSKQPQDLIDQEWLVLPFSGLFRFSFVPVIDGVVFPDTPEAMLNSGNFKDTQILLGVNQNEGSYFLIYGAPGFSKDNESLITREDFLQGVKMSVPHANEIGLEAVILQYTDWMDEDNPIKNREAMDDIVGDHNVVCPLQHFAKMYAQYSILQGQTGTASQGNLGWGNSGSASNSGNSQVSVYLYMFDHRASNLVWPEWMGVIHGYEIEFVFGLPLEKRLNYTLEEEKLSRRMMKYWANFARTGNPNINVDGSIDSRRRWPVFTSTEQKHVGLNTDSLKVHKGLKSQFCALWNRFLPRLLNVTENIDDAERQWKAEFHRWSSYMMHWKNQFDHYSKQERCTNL

Rattus norvegicus = organism: Rattus norvegicus; experiment: Selectivity index, ratio of IC50 for rat serum BuChE to IC50 for AChE from rat cortex homogenate; assay type: cell-free
Acetylcholinesterase [2] = target: T1, Acetylcholinesterase (Rattus norvegicus, UniProt P37136); experiment: Inhibition of AChE from rat cortex homogenate using acetylthiocholine iodide as substrate after 15 mins by Ellman method
T1 sequence (P37136 whole entry): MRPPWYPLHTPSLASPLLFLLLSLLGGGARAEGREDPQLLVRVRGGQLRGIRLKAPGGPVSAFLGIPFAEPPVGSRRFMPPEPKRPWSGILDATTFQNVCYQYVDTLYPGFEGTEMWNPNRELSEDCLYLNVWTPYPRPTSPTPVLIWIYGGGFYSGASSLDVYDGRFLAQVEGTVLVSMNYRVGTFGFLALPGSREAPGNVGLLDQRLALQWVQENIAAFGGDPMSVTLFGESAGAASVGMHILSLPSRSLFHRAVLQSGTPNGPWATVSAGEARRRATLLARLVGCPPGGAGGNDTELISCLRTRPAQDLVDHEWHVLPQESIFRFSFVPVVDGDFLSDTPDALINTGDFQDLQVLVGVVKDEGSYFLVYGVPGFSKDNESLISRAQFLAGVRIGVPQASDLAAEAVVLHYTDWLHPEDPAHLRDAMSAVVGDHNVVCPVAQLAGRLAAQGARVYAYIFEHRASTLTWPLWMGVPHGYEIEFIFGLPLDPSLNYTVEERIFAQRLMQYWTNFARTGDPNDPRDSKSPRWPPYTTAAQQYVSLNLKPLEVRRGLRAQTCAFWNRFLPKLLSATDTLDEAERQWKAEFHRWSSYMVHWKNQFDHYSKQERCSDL

[3] = Inhibition of rat serum BuChE using butyrylthiocholine iodide as substrate after 15 mins by Ellman method; assay type: cell-free
[4] = target: Amyloid-beta precursor protein (Homo sapiens) (UniProt P05067); experiment: Inhibition of self-mediated aggregation of amyloid beta (1-42) (unknown origin) at 25 uM after 24 hrs by thioflavin T fluorescence-based fluorimetric method
Sequence of Amyloid-beta precursor protein (Homo sapiens) (P05067 whole entry): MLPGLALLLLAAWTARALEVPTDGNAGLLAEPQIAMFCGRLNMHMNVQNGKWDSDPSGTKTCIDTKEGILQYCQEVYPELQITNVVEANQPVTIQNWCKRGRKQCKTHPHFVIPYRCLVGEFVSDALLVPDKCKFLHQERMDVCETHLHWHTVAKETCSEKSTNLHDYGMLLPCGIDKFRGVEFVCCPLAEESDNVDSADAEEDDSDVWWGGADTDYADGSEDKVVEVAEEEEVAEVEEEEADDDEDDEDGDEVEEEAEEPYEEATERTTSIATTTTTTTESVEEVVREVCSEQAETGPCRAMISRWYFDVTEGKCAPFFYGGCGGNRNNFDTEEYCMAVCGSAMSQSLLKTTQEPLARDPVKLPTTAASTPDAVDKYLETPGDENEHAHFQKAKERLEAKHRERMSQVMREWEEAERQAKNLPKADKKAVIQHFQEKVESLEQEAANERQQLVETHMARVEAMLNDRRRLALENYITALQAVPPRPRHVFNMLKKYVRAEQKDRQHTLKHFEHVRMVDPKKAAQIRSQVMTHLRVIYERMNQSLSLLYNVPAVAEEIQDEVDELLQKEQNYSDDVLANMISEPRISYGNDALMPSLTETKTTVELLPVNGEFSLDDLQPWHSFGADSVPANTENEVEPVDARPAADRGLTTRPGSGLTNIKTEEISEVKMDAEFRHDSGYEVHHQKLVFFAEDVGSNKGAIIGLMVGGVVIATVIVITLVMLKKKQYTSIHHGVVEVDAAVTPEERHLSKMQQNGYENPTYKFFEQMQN

[5] = target: Amyloid-beta precursor protein (Homo sapiens) (UniProt P05067); experiment: Inhibition of Cu2+-mediated aggregation of amyloid beta (1-42) (unknown origin) at 25 uM after 24 hrs by thioflavin T fluorescence-based fluorimetric method
[6] = Antioxidant activity assessed as AAPH scavenging activity measured as trolox equivalent at 5 uM after 15 mins by ORAC-FL method relative to control; assay type: physicochemical; settings: 0.25 h
[7] = Metal chelating activity of the compound assessed as formation of iron-compound complex in methanol solution at 37.5 uM after 30 mins by UV-vis spectrometry; assay type: physicochemical; settings: 0.5 h
[8] = Metal chelating activity of the compound assessed as formation of copper-compound complex in methanol solution at 37.5 uM after 30 mins by UV-vis spectrometry; assay type: physicochemical; settings: 0.5 h
[9] = Metal chelating activity of the compound assessed as formation of aluminium-compound complex in methanol solution at 37.5 uM after 30 mins by UV-vis spectrometry; assay type: physicochemical; settings: 0.5 h
[10] = target: Acetylcholinesterase (Electrophorus electricus) (UniProt O42275); experiment: Mixed-type inhibition of electric eel AChE using acetylthiocholine iodide as substrate at 0.0625 to 0.25 uM after 15 mins by Lineweaver-Burk plot method
Sequence of Acetylcholinesterase (Electrophorus electricus) (O42275 24-633 limits assumed): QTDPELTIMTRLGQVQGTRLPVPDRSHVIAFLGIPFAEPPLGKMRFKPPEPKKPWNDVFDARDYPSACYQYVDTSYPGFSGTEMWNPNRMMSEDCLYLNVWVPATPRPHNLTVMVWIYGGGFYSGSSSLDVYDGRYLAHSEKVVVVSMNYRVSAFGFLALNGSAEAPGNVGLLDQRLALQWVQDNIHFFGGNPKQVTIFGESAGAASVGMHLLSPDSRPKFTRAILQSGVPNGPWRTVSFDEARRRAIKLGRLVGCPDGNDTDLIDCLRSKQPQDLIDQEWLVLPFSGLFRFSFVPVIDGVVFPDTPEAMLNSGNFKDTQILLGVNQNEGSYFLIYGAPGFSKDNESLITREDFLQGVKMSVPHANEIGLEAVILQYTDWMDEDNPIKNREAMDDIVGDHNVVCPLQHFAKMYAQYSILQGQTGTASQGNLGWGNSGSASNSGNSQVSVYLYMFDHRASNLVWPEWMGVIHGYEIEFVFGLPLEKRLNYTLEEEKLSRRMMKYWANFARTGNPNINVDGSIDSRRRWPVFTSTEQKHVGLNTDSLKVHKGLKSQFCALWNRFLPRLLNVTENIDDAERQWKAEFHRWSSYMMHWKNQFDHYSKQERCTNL

[11] = Metal chelating activity of the compound assessed as formation of zinc-compound complex in methanol solution at 37.5 uM after 30 mins by UV-vis spectrometry; assay type: physicochemical; settings: 0.5 h

| Structure (SMILES) | IC50 (Acetylcholinesterase [1]) | Ratio IC50 (Rattus norvegicus) | IC50 (Acetylcholinesterase [2]) [µM] | IC50 [3] [µM] | inhibition [4] [%] | inhibition [5] [%] | fold change (FC) [6] | IC50 (Acetylcholinesterase [1]; read-out: IC50) [µM] | Activity [7] | Activity [8] | Activity [9] | inhibition [10] | Activity [11] |
| --- | --- | --- | --- | --- | --- | --- | --- | --- | --- | --- | --- | --- | --- |
| COc1ccccc1CN(C)CCCNC(=O)c1cc(=O)c2c(O)cccc2o1 | Not Active | 10.7 | 9.51 | 102 | 50.6 | 23.8 | 1.64 | – | – | – | – | – | – |
| CCN(CCCNC(=O)c1cc(=O)c2c(O)cc(OC)cc2o1)Cc1ccccc1 | – | 10.5 | 7.94 | 83.5 | 21.1 | 31.5 | 0.66 | 11.2 | – | – | – | – | – |
| O=C(O)c1cc(=O)c2c(O)cc(O)cc2o1 | – | – | > 200 | > 200 | – | – | 2.01 | > 200 | – | – | – | – | – |
| COc1cc(O)c2c(=O)cc(C(=O)NCCCCN(C)Cc3ccccc3)oc2c1 | – | 17.9 | 7.5 | 135 | 24.4 | 35.3 | 0.79 | 5.86 | – | – | – | – | – |
| CN(CCCNC(=O)c1cc(=O)c2c(O)cccc2o1)Cc1ccccc1 | – | 6.1 | 19.6 | 120 | 43.9 | 25.8 | 0.85 | 24.4 | – | – | – | – | – |
| CCN(CCCCCCNC(=O)c1cc(=O)c2c(O)cccc2o1)Cc1ccccc1OC | – | 122 | 0.19 | 23.2 | 63 | 55.6 | 0.87 | 0.53 | – | – | – | – | – |
| CCN(CCCCNC(=O)c1cc(=O)c2c(O)cc(OC)cc2o1)Cc1ccccc1OC | – | 262 | 0.33 | 86.5 | 51 | 38.9 | 0.62 | 1.16 | – | – | – | – | – |
| COc1cc(O)c2c(=O)cc(C(=O)NCCCCCCN(C)Cc3ccccc3)oc2c1 | – | 16.5 | 3.03 | 50.1 | 33.5 | 37.1 | 1 | 0.25 | – | – | – | – | – |
| CCN(CCCCNC(=O)c1cc(=O)c2c(O)cc(OC)cc2o1)Cc1ccccc1 | – | 71 | 1.81 | 128 | 39 | 34.1 | 0.65 | 1.45 | – | – | – | – | – |
| CCN(CCCCCCNC(=O)c1cc(=O)c2c(O)cc(OC)cc2o1)Cc1ccccc1OC | – | 217 | 0.23 | 49.9 | 58.2 | 52 | 0.76 | 0.56 | – | – | – | – | – |
| CCN(CCCCNC(=O)c1cc(=O)c2c(O)cc(N(C)C)cc2o1)Cc1ccccc1N(C)C | – | 107 | 1.39 | 149 | 40.8 | 30.7 | 1.34 | 3.53 | – | – | – | – | – |
| CCN(CCCNC(=O)c1cc(=O)c2c(O)cccc2o1)Cc1ccccc1OC | – | 228 | 0.41 | 93.4 | 48.7 | 35.2 | 1.13 | 13.9 | – | – | – | – | – |
| COc1cc(O)c2c(=O)cc(C(=O)NCCCCCCN(C)Cc3ccccc3OC)oc2c1 | – | 27.2 | 1.59 | 43.3 | 43.9 | 48.1 | 1.3 | 0.58 | – | – | – | – | – |
| COc1ccccc1CN(C)CCCCNC(=O)c1cc(=O)c2c(O)cccc2o1 | – | 40.1 | 1.37 | 55 | 49.3 | 24.1 | 0.81 | 3.29 | – | – | – | – | – |
| COc1cc(O)c2c(=O)cc(C(=O)NCCCN(C)Cc3ccccc3OC)oc2c1 | – | 42.5 | 4.01 | 171 | 43.6 | 28.7 | 0.93 | 9.8 | – | – | – | – | – |
| COc1cc(O)c2c(=O)cc(C(=O)NCCCCN3CCOc4ccccc4C3)oc2c1 | – | – | > 200 | > 200 | 40.9 | 35 | 0.68 | > 200 | – | – | – | – | – |
| CCOC(=O)c1cc(=O)c2c(O)cccc2o1 | – | – | > 200 | > 200 | – | – | 0.78 | > 200 | – | – | – | – | – |

| Structure (SMILES) | IC50 (Acetylcholinesterase [1]) | Ratio IC50 (Rattus norvegicus) | IC50 (Acetylcholinesterase [2]) [µM] | IC50 [3] [µM] | inhibition [4] [%] | inhibition [5] [%] | fold change (FC) [6] | IC50 (Acetylcholinesterase [1]; read-out: IC50) [µM] | Activity [7] | Activity [8] | Activity [9] | inhibition [10] | Activity [11] |
| --- | --- | --- | --- | --- | --- | --- | --- | --- | --- | --- | --- | --- | --- |
| CCN(CCCNC(=O)c1cc(=O)c2c(O)cc(OC)cc2o1)Cc1ccccc1OC | – | 224 | 0.88 | 197 | 47.9 | 27.2 | 0.54 | 1.85 | – | – | – | – | – |
| C#CCN(CCCCNC(=O)c1cc(=O)c2c(O)cc(OC)cc2o1)Cc1ccccc1OC | – | 4.2 | 13.6 | 57.3 | 22.4 | 21.5 | 0.56 | 73 | – | – | – | – | – |
| COc1cc(O)c2c(=O)cc(C(=O)NCCCN(C)Cc3ccccc3)oc2c1 | – | > 13.1 | 15.3 | > 200 | 23 | 24.3 | 0.46 | 3.12 | – | – | – | – | – |
| CN(C)c1cc(O)c2c(=O)cc(C(=O)O)oc2c1 | – | – | > 200 | > 200 | – | – | 0.95 | > 200 | – | – | – | – | – |
| COc1cc(/C=C/C(=O)CC(=O)/C=C/c2ccc(O)c(OC)c2)ccc1O | – | – | – | – | – | 58 | – | – | – | – | – | – | – |
| CCN(CCCCNC(=O)c1cc(=O)c2c(O)cc(O)cc2o1)Cc1ccccc1OC | – | 127 | 1.11 | 141 | 37.8 | 32.1 | 2.3 | 36.2 | – | – | – | – | – |
| CCN(CCCCNC(=O)c1cc(=O)c2c(O)cccc2o1)Cc1ccccc1OC | – | 736 | 0.07 | 51.5 | 59.2 | 48.3 | 0.83 | 0.55 | Not Active | Active | Not Active | Active | Not Active |
| COc1cc2c(cc1OC)C(=O)C(CC1CCN(Cc3ccccc3)CC1)C2 (stereo unspecified) [DONEPEZIL] | – | – | – | 20.7 | – | – | – | – | – | – | – | – | – |
| CCN(CCCCNC(=O)c1cc(=O)c2c(O)cc(OC)cc2o1)Cc1ccc(N(C)C)cc1 | – | 7.7 | 7.45 | 57.5 | 37.1 | 28.8 | 2.2 | 9.05 | – | – | – | – | – |
| CCN(CCCCCCNC(=O)c1cc(=O)c2c(O)cc(OC)cc2o1)Cc1ccccc1 | – | 31.5 | 1.7 | 53.5 | 28.6 | 42.6 | 0.65 | 1.38 | – | – | – | – | – |
| CCN(CCCCNC(=O)c1cc(=O)c2c(O)cc(N(C)C)cc2o1)Cc1ccccc1OC | – | 120 | 0.91 | 109 | 41.1 | 36.9 | 1.05 | 4.02 | – | – | – | – | – |
| COc1cc(O)c2c(=O)cc(C(=O)NCCCCN(C)Cc3ccccc3OC)oc2c1 | – | 28.3 | 2.9 | 82.1 | 47.5 | 36.3 | 0.55 | 3.5 | – | – | – | – | – |
| CCN(CCCCCCNC(=O)c1cc(=O)c2c(O)cc(O)cc2o1)Cc1ccccc1OC | – | > 200 | 0.87 | > 200 | 39.4 | 28.7 | 2.25 | 1.4 | – | – | – | – | – |
| CCN(CCCCNC(=O)c1cc(=O)c2c(O)cc(OC)cc2o1)Cc1ccccc1N(C)C | – | 239 | 0.31 | 74.1 | 25.6 | 20 | 0.97 | 0.92 | – | – | – | – | – |
| CCN(CCCNC(=O)c1cc(=O)c2c(O)cc(O)cc2o1)Cc1ccccc1OC | – | > 29.2 | 6.85 | > 200 | 35.1 | 18.1 | 2.1 | 49.7 | – | – | – | – | – |
| COc1cc(O)c2c(=O)cc(C(=O)O)oc2c1 | – | – | > 200 | > 200 | – | – | 0.87 | > 200 | – | – | – | – | – |
